Results reported in PubChem BioAssay AID1259407 (Chemical Carcinogenesis Research Information System (CCRIS), 2018).
Activity calls are given as the source filed them. No rule for the calls is given here.

System: CCRIS mutagenicity, Ames/micronucleus/aberration tests
Assay: CCRIS mutagenicity studies
[1] = Test System: AMES SALMONELLA TYPHIMURIUM, Strain/Indicator: TA100, Metabolic Activation: NONE, Method: PREINCUBATION
[2] = Test System: AMES SALMONELLA TYPHIMURIUM, Strain/Indicator: TA98, Metabolic Activation: RAT, LIVER, S-9, AROCLOR 1254, Method: STANDARD PLATE
[3] = Test System: AMES SALMONELLA TYPHIMURIUM, Strain/Indicator: TA100, Metabolic Activation: NONE, Method: STANDARD PLATE
[4] = Test System: AMES SALMONELLA TYPHIMURIUM, Strain/Indicator: TA100, Metabolic Activation: RAT, LIVER, S-9, Method: STANDARD PLATE
[5] = Test System: AMES SALMONELLA TYPHIMURIUM, Strain/Indicator: TA98, Metabolic Activation: NONE, Method: STANDARD PLATE
[6] = Test System: AMES SALMONELLA TYPHIMURIUM, Strain/Indicator: TA1535, Metabolic Activation: NONE, Method: STANDARD PLATE

## CNc1ccccc1C(=O)OC
Test System: AMES SALMONELLA TYPHIMURIUM, Strain/Indicator: TA97, Metabolic Activation: NONE, Method: PREINCUBATION
  mutagenic call: inactive; negative
Test System: AMES SALMONELLA TYPHIMURIUM, Strain/Indicator: TA97, Metabolic Activation: RAT, LIVER, S-9, AROCLOR 1254, Method: PREINCUBATION
  mutagenic call: inactive; negative
Test System: AMES SALMONELLA TYPHIMURIUM, Strain/Indicator: TA102, Metabolic Activation: NONE, Method: PREINCUBATION
  mutagenic call: inactive; negative
Test System: AMES SALMONELLA TYPHIMURIUM, Strain/Indicator: TA102, Metabolic Activation: RAT, LIVER, S-9, AROCLOR 1254, Method: PREINCUBATION
  mutagenic call: inactive; negative
Test System: UDS RODENT HEPATOCYTES, Strain/Indicator: THY INCORP (NON-S-PHASE), Metabolic Activation: NONE, Method: AUTORADIOGRAPHY
  mutagenic call: inactive; negative

## COCCN(CCOC)c1cc(NC(C)=O)c(-n2nc3c(Br)cc(N)c(Cl)c3n2)cc1OC
Test System: AMES SALMONELLA TYPHIMURIUM, Strain/Indicator: TA98, Metabolic Activation: RAT LIVER S-9, AROCLOR 1254, Method: STANDARD PLATE
  mutagenic call: active; positive
Test System: AMES SALMONELLA TYPHIMURIUM, Strain/Indicator: TA100, Metabolic Activation: RAT LIVER S-9, AROCLOR 1254, Method: STANDARD PLATE
  mutagenic call: active; positive
Test System: AMES SALMONELLA TYPHIMURIUM, Strain/Indicator: TA104, Metabolic Activation: RAT LIVER S-9, AROCLOR 1254, Method: STANDARD PLATE
  mutagenic call: active; positive
Test System: AMES SALMONELLA TYPHIMURIUM, Strain/Indicator: YG1024, Metabolic Activation: RAT LIVER S-9, PHENOBARBITAL, 5,6-BENZOFLAVONE (10%), Method: PREINCUBATION
  mutagenic call: active; positive

## Clc1nncc2ncccc12
Test System: AMES SALMONELLA TYPHIMURIUM, Strain/Indicator: TA98, Metabolic Activation: NONE, Method: PREINCUBATION
  mutagenic call: inactive; negative
Test System: AMES SALMONELLA TYPHIMURIUM, Strain/Indicator: TA98, Metabolic Activation: RAT, LIVER, S-9, PCB, Method: PREINCUBATION
  mutagenic call: inactive; negative
[1]
  mutagenic call: inactive; negative
Test System: AMES SALMONELLA TYPHIMURIUM, Strain/Indicator: TA100, Metabolic Activation: RAT, LIVER, S-9, PCB, Method: PREINCUBATION
  mutagenic call: inactive; negative

## CC(=O)Nc1cc2c(cc1Cl)-c1ccccc1C2
[2]
  mutagenic call: active; positive

## CC12OOC1(COC(=O)Nc1ccc(Cl)cc1)Oc1ccccc12 (stereo not given)
[1]
  mutagenic call: active; positive

## COS(=O)(=O)c1ccc(C)cc1
End Point: IN VITRO MICRONUCLEUS, Test System: MOUSE LYMPHOMA L5178Y CELLS, Metabolic Activation: NONE
  mutagenic call: active; positive
End Point: IN VITRO MICRONUCLEUS, Test System: MOUSE LYMPHOMA L5178Y CELLS, Metabolic Activation: RAT, LIVER, S-9
  mutagenic call: active; positive
End Point: In vitro micronucleus, Test System: Chinese Hamster Ovary (CHO-WBL) cells, Metabolic Activation: None
  mutagenic call: active; positive (p<0.01)
[3]
  mutagenic call: active; positive
[4]
  mutagenic call: active; positive

## O=[N+]([O-])c1c2c(cc3ccccc13)C=C[C@@H](O)[C@@H]2O
[5]
  mutagenic call: inactive; negative
Test System: AMES SALMONELLA TYPHIMURIUM, Strain/Indicator: TA98, Metabolic Activation: RAT, LIVER, S-9, Method: STANDARD PLATE
  mutagenic call: inactive; negative
[3]
  mutagenic call: inactive; negative
[4]
  mutagenic call: inactive; negative

## CC(=O)N(O)c1ccc(Sc2ccccc2)cc1
[5]
  mutagenic call: active; positive
[2]
  mutagenic call: active; positive

## CC(C)CCCCCCOC(=O)c1ccccc1C(=O)OCCCCCCC(C)C
[5]
  mutagenic call: inactive; negative
Test System: AMES SALMONELLA TYPHIMURIUM, Strain/Indicator: TA98, Metabolic Activation: RAT LIVER S-9, AROCLOR, Method: STANDARD PLATE
  mutagenic call: inactive; negative
[3]
  mutagenic call: inactive; negative
Test System: AMES SALMONELLA TYPHIMURIUM, Strain/Indicator: TA100, Metabolic Activation: RAT LIVER S-9, AROCLOR, Method: STANDARD PLATE
  mutagenic call: inactive; negative
[6]
  mutagenic call: inactive; negative
Test System: AMES SALMONELLA TYPHIMURIUM, Strain/Indicator: TA1535, Metabolic Activation: RAT LIVER S-9, AROCLOR, Method: STANDARD PLATE
  mutagenic call: inactive; negative
Test System: AMES SALMONELLA TYPHIMURIUM, Strain/Indicator: TA1537, Metabolic Activation: NONE, Method: STANDARD PLATE
  mutagenic call: inactive; negative
Test System: AMES SALMONELLA TYPHIMURIUM, Strain/Indicator: TA1537, Metabolic Activation: RAT LIVER S-9, AROCLOR, Method: STANDARD PLATE
  mutagenic call: inactive; negative
Test System: AMES SALMONELLA TYPHIMURIUM, Strain/Indicator: TA1538, Metabolic Activation: NONE, Method: STANDARD PLATE
  mutagenic call: inactive; negative
Test System: AMES SALMONELLA TYPHIMURIUM, Strain/Indicator: TA1538, Metabolic Activation: RAT LIVER S-9, AROCLOR, Method: STANDARD PLATE
  mutagenic call: inactive; negative

## CC(C)CCC[C@@H](C)[C@H]1CC[C@H]2[C@@H]3C(=O)C=C4C[C@@H](O)CC[C@]4(C)[C@H]3CC[C@]12C
Test System: AMES SALMONELLA TYPHIMURIUM, Strain/Indicator: TA97, Metabolic Activation: NONE, Method: STANDARD PLATE
  mutagenic call: inactive; negative
[5]
  mutagenic call: inactive; negative
[3]
  mutagenic call: inactive; negative
Test System: AMES SALMONELLA TYPHIMURIUM, Strain/Indicator: TA102, Metabolic Activation: NONE, Method: STANDARD PLATE
  mutagenic call: inactive; negative
[6]
  mutagenic call: inactive; negative

## Oc1c(O)c(Cl)c(Cl)c(Cl)c1Cl
Test System: CHINESE HAMSTER V-79, Strain/Indicator: V-79/6-THIOGUANINE (HGPRT), Metabolic Activation: NONE, Method: SUSPENSION/PLATE
  mutagenic call: inactive; negative
Test System: CHINESE HAMSTER V-79, Strain/Indicator: V-79/6-THIOGUANINE, Metabolic Activation: NONE, Method: STANDARD PLATE
  mutagenic call: inactive; negative
Test System: CHINESE HAMSTER V-79, Strain/Indicator: V-79/6-THIOGUANINE, Metabolic Activation: PRIMARY RAT HEPATOCYTES, Method: STANDARD PLATE
  mutagenic call: inactive; negative
Test System: CHINESE HAMSTER V-79, Strain/Indicator: V-79/OUABAIN, Metabolic Activation: NONE, Method: SUSPENSION/PLATE
  mutagenic call: inactive; negative
